Columns and labels:
[1] = system: A-375; assay: Antiproliferative activity against human A375 cells assessed as reduction in cell viability incubated for 72 hrs by MTT assay; format: functional, cell-based; conditions: A-375, 72 h
[2] = system: HeLa; assay: Antiproliferative activity against human HeLa cells assessed as reduction in cell viability incubated for 72 hrs by MTT assay; format: functional, cell-based
[3] = Toxicity in BALB/c mouse xenografted with human HeLa cells assessed as reduction in body weight at 20 to 50 mg/kg, ig administered for 30 days; format: organism-based; conditions: in vivo, po, 720 h
[4] = Toxicity in BALB/c mouse xenografted with human A549 cells assessed as reduction in body weight at 20 to 40 mg/kg, ig administered for 30 days; format: organism-based; conditions: in vivo, po, 720 h
[5] = target: NUAK family SNF1-like kinase 1 (Homo sapiens) (UniProt O60285); assay: Inhibition of human ARK5 at 100 nM using KKKVSRSGLYRSPSMPENLNRPR as substrate by [gamma-33P]-ATP assay
[6] = target: Calcium/calmodulin-dependent protein kinase type II subunit beta (Homo sapiens) (UniProt Q13554); assay: Inhibition of human CAMK2B at 100 nM using KKALRRQETVDAL as substrate by [gamma-33P]-ATP assay
[7] = target: Casein kinase I isoform alpha-like (Homo sapiens) (UniProt Q8N752); assay: Inhibition of human CK1a1L at 100 nM using KRRRAL[pS]VASLPGL as substrate by [gamma-33P]-ATP assay
Chain of Casein kinase I isoform alpha-like (Homo sapiens) (Q8N752 whole entry, canonical isoform): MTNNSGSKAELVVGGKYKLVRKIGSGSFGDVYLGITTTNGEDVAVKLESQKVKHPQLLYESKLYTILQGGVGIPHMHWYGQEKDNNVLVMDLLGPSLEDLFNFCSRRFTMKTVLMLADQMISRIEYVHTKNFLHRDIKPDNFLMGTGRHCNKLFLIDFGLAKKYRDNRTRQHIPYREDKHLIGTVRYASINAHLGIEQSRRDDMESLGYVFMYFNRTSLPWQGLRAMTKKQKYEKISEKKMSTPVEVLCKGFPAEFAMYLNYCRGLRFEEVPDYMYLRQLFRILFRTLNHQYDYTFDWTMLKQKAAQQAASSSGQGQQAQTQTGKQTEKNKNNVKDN

[8] = target: Dual specificity protein kinase CLK2 (Homo sapiens) (UniProt P49760); assay: Inhibition of human CLK2 at 100 nM using MBP as substrate by [gamma-33P]-ATP assay
[9] = target: Megakaryocyte-associated tyrosine-protein kinase (Homo sapiens) (UniProt P42679); assay: Inhibition of human CTK at 100 nM using poly[Glu:Tyr] (4:1) as substrate by [gamma-33P]-ATP assay
[10] = target: Serine/threonine-protein kinase DCLK2 (Homo sapiens) (UniProt Q8N568); assay: Inhibition of human DCAMKL2 at 100 nM using KKLNRTLSFAEPG as substrate by [gamma-33P]-ATP assay
[11] = target: Ephrin type-A receptor 5 (Homo sapiens) (UniProt P54756); assay: Inhibition of human EPHA5 at 100 nM using poly[Glu:Tyr] (4:1) as substrate by [gamma-33P]-ATP assay
Chain of Ephrin type-A receptor 5 (Homo sapiens) (P54756 whole entry): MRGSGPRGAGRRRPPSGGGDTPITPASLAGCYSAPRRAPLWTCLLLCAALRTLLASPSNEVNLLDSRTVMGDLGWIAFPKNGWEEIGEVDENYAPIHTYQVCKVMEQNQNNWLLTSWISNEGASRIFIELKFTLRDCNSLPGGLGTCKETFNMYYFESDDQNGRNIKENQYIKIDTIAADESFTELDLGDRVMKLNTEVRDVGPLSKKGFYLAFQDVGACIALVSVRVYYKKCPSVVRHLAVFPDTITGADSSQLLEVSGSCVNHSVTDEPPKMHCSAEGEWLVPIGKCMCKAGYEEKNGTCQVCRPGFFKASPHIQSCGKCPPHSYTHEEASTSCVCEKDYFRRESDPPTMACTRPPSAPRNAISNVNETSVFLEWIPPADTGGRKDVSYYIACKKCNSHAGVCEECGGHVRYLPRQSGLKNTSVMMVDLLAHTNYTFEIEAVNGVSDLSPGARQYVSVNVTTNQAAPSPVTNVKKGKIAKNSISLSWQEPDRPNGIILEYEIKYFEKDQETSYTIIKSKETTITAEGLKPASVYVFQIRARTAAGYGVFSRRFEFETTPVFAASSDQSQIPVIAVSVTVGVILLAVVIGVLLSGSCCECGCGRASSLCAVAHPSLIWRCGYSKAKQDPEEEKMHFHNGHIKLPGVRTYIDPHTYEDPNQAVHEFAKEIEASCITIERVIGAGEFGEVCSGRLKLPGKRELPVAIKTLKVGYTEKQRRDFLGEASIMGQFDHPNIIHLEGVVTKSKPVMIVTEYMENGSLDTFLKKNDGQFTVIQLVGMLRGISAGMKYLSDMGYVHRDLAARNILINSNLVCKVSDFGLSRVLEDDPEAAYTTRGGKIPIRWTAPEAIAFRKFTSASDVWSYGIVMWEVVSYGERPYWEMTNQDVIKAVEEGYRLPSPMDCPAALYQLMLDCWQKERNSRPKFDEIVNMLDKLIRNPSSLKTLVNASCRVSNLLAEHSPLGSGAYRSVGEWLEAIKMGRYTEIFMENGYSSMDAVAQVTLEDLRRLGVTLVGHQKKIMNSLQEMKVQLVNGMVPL

[12] = target: Ephrin type-A receptor 8 (Homo sapiens) (UniProt P29322); assay: Inhibition of human EPHA8 at 100 nM using poly[Glu:Tyr] (4:1) as substrate by [gamma-33P]-ATP assay
[13] = target: Ephrin type-B receptor 4 (Homo sapiens) (UniProt P54760); assay: Inhibition of human EPHB4 at 100 nM using poly[Glu:Tyr] (4:1) as substrate by [gamma-33P]-ATP assay
[14] = target: Inhibitor of nuclear factor kappa-B kinase subunit beta (Homo sapiens) (UniProt O14920); assay: Inhibition of human IKKbeta at 100 nM using KKKKERLLDDRHDSGLDSMKDEE as substrate by [gamma-33P]-ATP assay
Chain of Inhibitor of nuclear factor kappa-B kinase subunit beta (Homo sapiens) (O14920 whole entry): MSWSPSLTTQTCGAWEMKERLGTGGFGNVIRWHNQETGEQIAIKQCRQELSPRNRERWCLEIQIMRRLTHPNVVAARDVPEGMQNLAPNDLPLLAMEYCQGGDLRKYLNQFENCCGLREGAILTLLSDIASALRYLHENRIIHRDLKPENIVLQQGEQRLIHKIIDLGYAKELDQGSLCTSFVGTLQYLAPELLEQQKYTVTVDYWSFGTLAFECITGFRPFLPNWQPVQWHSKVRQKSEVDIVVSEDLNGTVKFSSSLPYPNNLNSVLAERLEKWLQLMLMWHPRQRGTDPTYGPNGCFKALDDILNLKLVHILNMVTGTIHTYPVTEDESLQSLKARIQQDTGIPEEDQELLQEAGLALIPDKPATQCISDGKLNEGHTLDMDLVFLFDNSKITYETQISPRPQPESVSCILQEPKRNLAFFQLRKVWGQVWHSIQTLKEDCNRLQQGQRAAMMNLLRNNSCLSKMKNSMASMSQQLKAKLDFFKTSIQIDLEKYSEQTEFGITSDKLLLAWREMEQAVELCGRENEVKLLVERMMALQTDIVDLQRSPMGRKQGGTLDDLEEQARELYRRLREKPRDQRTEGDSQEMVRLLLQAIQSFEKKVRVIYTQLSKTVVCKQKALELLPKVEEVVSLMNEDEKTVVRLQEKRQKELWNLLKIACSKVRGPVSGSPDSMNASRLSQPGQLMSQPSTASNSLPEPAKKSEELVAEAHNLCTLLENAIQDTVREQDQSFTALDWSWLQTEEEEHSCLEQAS

[15] = target: Insulin receptor (Homo sapiens) (UniProt P06213); assay: Inhibition of human IR at 100 nM using poly[Glu:Tyr] (4:1) as substrate by [gamma-33P]-ATP assay
[16] = target: Tyrosine-protein kinase JAK1 (Homo sapiens) (UniProt P23458); assay: Inhibition of human JAK1 at 100 nM using poly[Glu:Tyr] (4:1) as substrate by [gamma-33P]-ATP assay
[17] = target: Serine/threonine-protein kinase LATS2 (Homo sapiens) (UniProt Q9NRM7); assay: Inhibition of human LATS2 at 100 nM using KKRNRRLSVA as substrate by [gamma-33P]-ATP assay
Chain of Serine/threonine-protein kinase LATS2 (Homo sapiens) (Q9NRM7 whole entry): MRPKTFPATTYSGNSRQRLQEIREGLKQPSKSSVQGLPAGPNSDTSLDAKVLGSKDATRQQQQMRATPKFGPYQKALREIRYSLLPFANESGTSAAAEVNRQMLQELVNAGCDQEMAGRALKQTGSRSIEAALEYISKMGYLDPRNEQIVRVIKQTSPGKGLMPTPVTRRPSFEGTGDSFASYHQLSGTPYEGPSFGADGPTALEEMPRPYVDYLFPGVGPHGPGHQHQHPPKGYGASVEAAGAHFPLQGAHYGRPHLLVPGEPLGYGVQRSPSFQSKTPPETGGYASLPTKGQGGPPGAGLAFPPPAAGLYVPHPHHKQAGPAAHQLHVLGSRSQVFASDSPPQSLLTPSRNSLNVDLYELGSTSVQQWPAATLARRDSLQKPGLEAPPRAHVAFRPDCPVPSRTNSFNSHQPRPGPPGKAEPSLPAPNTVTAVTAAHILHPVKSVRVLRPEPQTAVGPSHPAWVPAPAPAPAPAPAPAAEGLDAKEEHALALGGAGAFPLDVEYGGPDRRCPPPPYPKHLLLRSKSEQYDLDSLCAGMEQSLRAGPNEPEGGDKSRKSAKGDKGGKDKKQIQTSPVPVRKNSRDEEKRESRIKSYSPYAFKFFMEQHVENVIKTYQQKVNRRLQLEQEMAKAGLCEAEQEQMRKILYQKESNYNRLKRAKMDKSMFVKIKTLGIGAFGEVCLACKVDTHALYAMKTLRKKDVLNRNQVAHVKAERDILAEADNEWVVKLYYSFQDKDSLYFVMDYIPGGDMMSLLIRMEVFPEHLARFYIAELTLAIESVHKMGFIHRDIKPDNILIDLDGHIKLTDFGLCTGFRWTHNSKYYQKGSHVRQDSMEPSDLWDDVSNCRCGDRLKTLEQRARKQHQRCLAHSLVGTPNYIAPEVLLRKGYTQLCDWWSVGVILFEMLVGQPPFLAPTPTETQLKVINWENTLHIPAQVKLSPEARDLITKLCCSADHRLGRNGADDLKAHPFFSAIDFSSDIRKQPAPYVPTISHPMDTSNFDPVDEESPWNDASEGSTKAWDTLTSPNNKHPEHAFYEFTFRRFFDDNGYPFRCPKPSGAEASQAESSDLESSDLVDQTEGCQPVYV

[18] = target: Dual specificity mitogen-activated protein kinase kinase 4 (Homo sapiens) (UniProt P45985); assay: Inhibition of human MKK4 at 100 nM using JNK1 as substrate by [gamma-33P]-ATP assay
[19] = target: MAP kinase-interacting serine/threonine-protein kinase 2 (Homo sapiens) (UniProt Q9HBH9); assay: Inhibition of human MNK2 at 100 nM using MBP as substrate by [gamma-33P]-ATP assay
Chain of MAP kinase-interacting serine/threonine-protein kinase 2 (Homo sapiens) (Q9HBH9 whole entry, looked up): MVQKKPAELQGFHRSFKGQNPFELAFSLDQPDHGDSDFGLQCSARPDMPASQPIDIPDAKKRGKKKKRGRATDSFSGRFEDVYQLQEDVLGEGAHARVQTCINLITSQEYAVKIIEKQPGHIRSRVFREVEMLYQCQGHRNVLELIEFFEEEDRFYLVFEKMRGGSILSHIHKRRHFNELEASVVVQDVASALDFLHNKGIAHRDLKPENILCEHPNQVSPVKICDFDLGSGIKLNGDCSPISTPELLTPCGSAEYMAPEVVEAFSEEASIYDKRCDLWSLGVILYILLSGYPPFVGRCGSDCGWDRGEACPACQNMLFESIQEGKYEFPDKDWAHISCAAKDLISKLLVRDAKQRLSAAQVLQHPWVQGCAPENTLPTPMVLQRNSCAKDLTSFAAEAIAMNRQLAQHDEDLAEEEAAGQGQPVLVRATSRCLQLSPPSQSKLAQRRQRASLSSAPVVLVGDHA

[20] = target: Myosin light chain kinase (Homo sapiens) (UniProt Q32MK0); assay: Inhibition of human MYLK3 at 100 nM using KKRPQRRYSNVF as substrate by [gamma-33P]-ATP assay
[21] = target: Serine/threonine-protein kinase PAK 1 (Homo sapiens) (UniProt Q13153); assay: Inhibition of human PAK1 at 100 nM using RRRLSFAEPG as substrate by [gamma-33P]-ATP assay
[22] = target: Serine/threonine-protein kinase PAK 3 (Homo sapiens) (UniProt O75914); assay: Inhibition of human PAK3 at 100 nM using RRRLSFAEPG as substrate by [gamma-33P]-ATP assay
[23] = target: cGMP-dependent protein kinase 2 (Homo sapiens) (UniProt Q13237); assay: Inhibition of human PKG2 at 100 nM using LRRASLG as substrate by [gamma-33P]-ATP assay
[24] = target: Dual serine/threonine and tyrosine protein kinase (Homo sapiens) (UniProt Q6XUX3); assay: Inhibition of human RIPK5 at 100 nM using MBP as substrate by [gamma-33P]-ATP assay
[25] = target: Serine/threonine-protein kinase Sgk3 (Homo sapiens) (UniProt Q96BR1); assay: Inhibition of human SGK3 at 100 nM using GRPRTSSFAEG as substrate by [gamma-33P]-ATP assay
[26] = target: Serine/threonine-protein kinase tousled-like 1 (Homo sapiens) (UniProt Q9UKI8); assay: Inhibition of human TLK1 at 100 nM using Histone H3 as substrate by [gamma-33P]-ATP assay
[27] = target: NT-3 growth factor receptor (Homo sapiens) (UniProt Q16288); assay: Inhibition of human TRKC at 100 nM using poly[Glu:Tyr] (4:1) as substrate by [gamma-33P]-ATP assay
[28] = target: AMP-activated protein kinase (AMPK) alpha-1/beta-1/gamma-1 (Homo sapiens) (UniProt P54619+Q9Y478+Q13131); assay: Inhibition of human AMPK (A1/B1/G1) at 100 nM using HMRSAMSGLHLVKRR as substrate by [gamma-33P]-ATP assay; format: protein-complex assay
Chain of AMP-activated protein kinase (AMPK) alpha-1/beta-1/gamma-1 (Homo sapiens) (P54619 whole entry): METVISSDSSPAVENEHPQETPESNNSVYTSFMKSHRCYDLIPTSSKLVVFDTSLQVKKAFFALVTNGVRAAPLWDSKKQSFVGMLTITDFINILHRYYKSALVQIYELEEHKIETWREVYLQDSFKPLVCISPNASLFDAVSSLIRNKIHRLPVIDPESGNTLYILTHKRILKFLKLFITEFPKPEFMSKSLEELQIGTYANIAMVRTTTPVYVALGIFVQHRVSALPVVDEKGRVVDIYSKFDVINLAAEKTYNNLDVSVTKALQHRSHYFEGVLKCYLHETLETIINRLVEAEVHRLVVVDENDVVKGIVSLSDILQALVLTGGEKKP
Chain of AMP-activated protein kinase (AMPK) alpha-1/beta-1/gamma-1 (Homo sapiens) (Q13131 whole entry partner): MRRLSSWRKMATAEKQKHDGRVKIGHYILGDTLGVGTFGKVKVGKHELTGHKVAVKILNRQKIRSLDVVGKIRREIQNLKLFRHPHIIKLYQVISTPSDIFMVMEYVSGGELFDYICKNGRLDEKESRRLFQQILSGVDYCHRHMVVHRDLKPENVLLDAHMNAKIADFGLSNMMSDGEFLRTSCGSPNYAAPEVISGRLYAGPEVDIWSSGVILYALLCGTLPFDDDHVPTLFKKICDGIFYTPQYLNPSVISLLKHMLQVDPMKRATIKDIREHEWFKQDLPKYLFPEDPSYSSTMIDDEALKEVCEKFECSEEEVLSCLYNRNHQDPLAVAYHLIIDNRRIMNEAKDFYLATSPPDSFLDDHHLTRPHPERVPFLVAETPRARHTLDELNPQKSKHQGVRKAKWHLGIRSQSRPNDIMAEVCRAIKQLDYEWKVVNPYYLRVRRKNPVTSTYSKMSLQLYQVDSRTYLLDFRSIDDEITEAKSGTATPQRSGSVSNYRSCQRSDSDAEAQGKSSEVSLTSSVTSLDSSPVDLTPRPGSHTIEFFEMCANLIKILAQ
Chain of AMP-activated protein kinase (AMPK) alpha-1/beta-1/gamma-1 (Homo sapiens) (Q9Y478 2-270 partner limits assumed): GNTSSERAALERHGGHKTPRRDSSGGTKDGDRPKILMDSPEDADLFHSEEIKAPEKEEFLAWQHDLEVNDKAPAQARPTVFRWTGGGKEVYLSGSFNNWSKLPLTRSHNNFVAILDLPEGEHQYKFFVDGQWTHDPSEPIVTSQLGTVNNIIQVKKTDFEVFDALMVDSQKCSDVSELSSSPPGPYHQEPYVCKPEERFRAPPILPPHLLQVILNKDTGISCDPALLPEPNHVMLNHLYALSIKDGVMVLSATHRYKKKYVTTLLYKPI

[29] = organism: Homo sapiens; assay: Inhibition of human AMPK (A1/B2/G1) at 100 nM using HMRSAMSGLHLVKRR as substrate by [gamma-33P]-ATP assay
[30] = target: Receptor-interacting serine/threonine-protein kinase 4 (Homo sapiens) (UniProt P57078); assay: Inhibition of human RIPK4 at 100 nM using histone H2A as substrate by [gamma-33P]-ATP assay
[31] = system: HeLa; assay: Inhibition of colony formation in human HeLa cells at 1.25 uM incubated for 2 weeks crystal violet staining based assay; format: functional; conditions: 336 h

In the case of `COc1ccc(N2C(=O)COc3ccc(-c4cnc(OC)c(NS(=O)(=O)c5ccc(F)cc5)c4)cc32)cc1`, the IC50 [1] is reported as 18.4 µM, the IC50 [2] is reported as 1.22 µM and the Activity [3] is reported as “Non-Toxic”. The Activity [4] was “Non-Toxic”, the inhibition [5] was 0.26% and the inhibition [6] was 5.36%. The inhibition [7] was -6.28%, the inhibition [8] was 10.2% and the inhibition [9] was -7.54%. The inhibition [10] was 2.1%, the inhibition [11] was 3.06% and the inhibition [12] was -2.71%. It also gave an inhibition [13] of 15.9%, an inhibition [14] of 14.5% and an inhibition [15] of 6.82%. The inhibition [16] was 26.8%, the inhibition [17] was 10.9% and the inhibition [18] was -4.2%. The inhibition [19] was 21.1%, the inhibition [20] was 3.77% and the inhibition [21] was 7.71%. For the same compound, the inhibition [22] was 4.51%, the inhibition [23] was 1.95% and the inhibition [24] was 9.57%. It also gave an inhibition [25] of 3.8%, an inhibition [26] of 2.5% and an inhibition [27] of 2.63%. The inhibition [28] was -4.91%, the inhibition [29] was -4.96% and the inhibition [30] was 1.41%. For the same compound, the inhibition at 1.25 µM [31] was > 50%.
